Measured values as given in PubChem BioAssay (NCI).
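Five compound concentrations were applied to cells in 96-well plates for 48 hours; endpoints were derived by simple linear interpolation of the resulting dose-response curve. Definition used: TGI = concentration required for complete inhibition of growth.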

What was measured:
Assay in all cases: growth of human tumour cells (NCI), 48 h
[1] = tested on: DMS 114 small cell lung
[2] = tested on: UACC-62 melanoma
[3] = tested on: KM12 colon
[4] = tested on: NCI-H460 lung
[5] = tested on: SK-OV-3 ovarian
[6] = tested on: OVCAR-5 ovarian
[7] = tested on: ACHN renal
[8] = tested on: NCI-H23 lung
[9] = tested on: U251 CNS
[10] = tested on: CCRF-CEM leukemia
[11] = tested on: HOP-62 NSCLC
[12] = tested on: MOLT-4 leukemia
[13] = tested on: M19-MEL melanoma
[14] = tested on: SF-268 CNS
[15] = tested on: SF-295 CNS
[16] = tested on: SNB-78 CNS
[17] = tested on: HT29 colon
[18] = tested on: SNB-75 CNS
[19] = tested on: UACC-257 melanoma
[20] = tested on: SNB-19 CNS
[21] = tested on: KM20L2 colon
[22] = tested on: A498 renal
[23] = tested on: RPMI-8226 leukemia
[24] = tested on: OVCAR-4 ovarian
[25] = tested on: K-562 leukemia
[26] = tested on: SK-MEL-28 melanoma
[27] = tested on: HOP-92 NSCLC
[28] = tested on: MALME-3M melanoma
[29] = tested on: COLO 205 colon
[30] = tested on: LXFL 529 NSCLC
[31] = tested on: OVCAR-3 ovarian
[32] = tested on: HCT-116 colon
[33] = tested on: UO-31 renal
[34] = tested on: IGROV1 ovarian
[35] = tested on: NCI-H522 lung
[36] = tested on: M14 melanoma
[37] = tested on: 786-0 renal
[38] = tested on: SR leukemia
[39] = tested on: SK-MEL-2 melanoma
[40] = tested on: XF 498 CNS
[41] = tested on: RXF-631 renal
[42] = tested on: LOX IMVI melanoma
[43] = tested on: EKVX NSCLC
[44] = tested on: SN12C renal
[45] = tested on: TK-10 renal
[46] = tested on: SW-620 colon
[47] = tested on: A549 NSCLC
[48] = tested on: CAKI-1 renal
[49] = tested on: HL-60(TB) leukemia
[50] = tested on: SK-MEL-5 melanoma
[51] = tested on: DLD-1 colon
[52] = tested on: RXF 393 renal
[53] = tested on: HOP-18 NSCLC
[54] = tested on: OVCAR-8 ovarian
[55] = tested on: DMS 273 small cell lung

Work on `COc1ccc2c(c1)CC[C@@H]1C2CC[C@]2(C)C(=O)N(N)C(=O)CC12` (stereo partly specified) yielded a TGI [1] greater than 100 µM, a TGI [2] greater than 100 µM and a TGI [3] greater than 100 µM. It also gave a TGI [4] greater than 100 µM, a TGI [5] greater than 100 µM and a TGI [6] greater than 100 µM. It also gave a TGI [7] greater than 100 µM, a TGI [8] greater than 100 µM and a TGI [9] greater than 100 µM. For the same compound, the TGI [10] was greater than 100 µM, the TGI [11] was greater than 100 µM and the TGI [12] was greater than 100 µM. It also gave a TGI [13] greater than 100 µM, a TGI [14] greater than 100 µM and a TGI [15] greater than 100 µM. It also gave a TGI [16] greater than 100 µM, a TGI [17] greater than 100 µM and a TGI [18] greater than 100 µM. It also gave a TGI [19] greater than 100 µM, a TGI [20] greater than 100 µM and a TGI [21] greater than 100 µM. For the same compound, the TGI [22] was greater than 100 µM, the TGI [23] was greater than 100 µM and the TGI [24] was greater than 100 µM. The TGI [25] was greater than 100 µM, the TGI [26] was greater than 100 µM and the TGI [27] was greater than 100 µM. It also gave a TGI [28] greater than 100 µM, a TGI [29] greater than 100 µM and a TGI [30] greater than 100 µM. For the same compound, the TGI [31] was greater than 100 µM, the TGI [32] was greater than 100 µM and the TGI [33] was greater than 100 µM. It also gave a TGI [34] greater than 100 µM, a TGI [35] greater than 100 µM and a TGI [36] greater than 100 µM. For the same compound, the TGI [37] was greater than 100 µM, the TGI [38] was greater than 100 µM and the TGI [39] was greater than 100 µM.
`C#C[C@H](CCCC)OC(=O)N[C@H](C)c1ccccc1` was tested, and the TGI [1] was 81 µM, the TGI [40] was greater than 100 µM and the TGI [41] was greater than 100 µM. For the same compound, the TGI [2] was greater than 100 µM, the TGI [3] was greater than 100 µM and the TGI [4] was greater than 100 µM. It also gave a TGI [42] of 87.8 µM, a TGI [5] greater than 100 µM and a TGI [6] of 99 µM. The TGI [43] was greater than 100 µM, the TGI [44] was greater than 100 µM and the TGI [45] was greater than 100 µM. The TGI [7] was greater than 100 µM, the TGI [9] was greater than 100 µM and the TGI [46] was greater than 100 µM. It also gave a TGI [10] greater than 100 µM, a TGI [11] greater than 100 µM and a TGI [47] greater than 100 µM. It also gave a TGI [12] of 94.8 µM, a TGI [13] of 93.8 µM and a TGI [14] greater than 100 µM. For the same compound, the TGI [15] was greater than 100 µM, the TGI [16] was greater than 100 µM and the TGI [17] was greater than 100 µM. For the same compound, the TGI [18] was greater than 100 µM, the TGI [19] was 71 µM and the TGI [20] was greater than 100 µM. It also gave a TGI [48] greater than 100 µM, a TGI [21] greater than 100 µM and a TGI [49] of 40.7 µM. For the same compound, the TGI [50] was 37 µM, the TGI [23] was 69.4 µM and the TGI [24] was greater than 100 µM. For the same compound, the TGI [51] was greater than 100 µM, the TGI [25] was greater than 100 µM and the TGI [52] was 92.4 µM. For the same compound, the TGI [26] was greater than 100 µM, the TGI [27] was greater than 100 µM and the TGI [29] was 48.7 µM. It also gave a TGI [30] greater than 100 µM, a TGI [31] greater than 100 µM and a TGI [53] greater than 100 µM. It also gave a TGI [32] of 63.4 µM, a TGI [33] of 75.8 µM and a TGI [54] greater than 100 µM. It also gave a TGI [34] greater than 100 µM, a TGI [35] of 86.8 µM and a TGI [36] greater than 100 µM. The TGI [37] was greater than 100 µM, the TGI [55] was greater than 100 µM and the TGI [38] was 99.4 µM. For the same compound, the TGI [39] was 68.4 µM.
